Experimental data from patent US20100227841A1, “Patient populations and treatment methods” (Harbor BioSciencs, Inc., priority 2008, published 2010).

What was measured:
[1] = tested on: pre-diabetic hyperglycemic patients and patients having type 2 diabetes; assay: Glucose clamp (M value) in 28-day clinical trial of oral capsules; format: in vivo, human
Experimental: Groups of pre-diabetic hyperglycemic patients and patients having type 2 diabetes were treated for 28 days with the experimental drug 17α-ethynylandrost-5-ene-3β,7β,17β-triol (oral capsules) or with placebo. […] Placebos were obtained with each treatment cohort based on protocol randomization of 2 treated:1 placebo. The pre-diabetic patients were obese (body mass index ≧29 kg/m^2) and glucose intolerant (fasting plasma glucose <126 mg/dL; 2-hr post prandial glucose 140-200 mg/dL after 75 g oral glucose). The diabetic patients were dosed with 10 mg/day for 28 days (n=6; cohort 6). […] Patients with an M value of <5 mg glucose/kg/min (M<5) were considered insulin resistant and patients with an M value of >5 mg glucose/kg/min (M>5) were considered insulin sensitive or essentially normal for whole body glucose metabolism.
The analysis of responders used standard analysis. Due to the cohort sizes and the ongoing basis of this clinical protocol, data for surrogates that corresponded to significance at p≦0.10 (trend) were considered positive evidence of surrogacy of the biomarker for the M<5 insulin resistant condition.

female NOD mice = assay: Spontaneous autoimmune diabetes in non-obese diabetic (NOD) mouse model; format: in vivo; conditions: for Insulitis Score/Islet (H&E) / β-Cell Score/Islet (Insulin): scale of 0 to 3
Text: Treatment of spontaneous autoimmune diabetes in non-obese diabetic (NOD) mouse model. The NOD model is used as an animal model for human type 1 diabetes. The NOD mouse strain spontaneously develops autoimmune (type 1) diabetes by a process that has similarities to human type 1 diabetes mellitus, e.g., immune-mediated selective destruction of the pancreatic islet 13-cells that produce insulin (M. A. Atkinson and N. K. Maclaren, New England J. Medicine, 331:1428-1436 1994). There is a higher incidence of diabetes (i.e., hyperglycemia, glucosuria, and hypoinsulinemia) in female vs. male NOD mice (80-90% vs. 10-20%, respectively). Disease incidence in this animal model is first observed at approximately 12 to 15 weeks of age with maximum incidence usually peaking 5 to 6 weeks later.
Methods. An oral formulation containing 17α-ethynylandrost-5-ene-3β,7β,17β-triol in 30% w/v β-cyclodextrin sulfobutyl ether sodium salt (Captisol®; CyDex, Inc., Overland Park, Kans.) was used. Six-week old female NOD mice (approximately 20-25 grams) were purchased from The Jackson Laboratories (Bar Harbor, Me.) and housed in a vivarium under pathogen-free conditions. The animals were acclimated for at least one week prior to initiation of oral dosing with 17α-ethynylandrost-5-ene-3β,7β,17β-triol. Animals were randomized into 5 per cage upon receipt and cages were subsequently randomized into dosing groups.
Female NOD mice were treated once daily with vehicle, 17α-ethynylandrost-5-ene-3β,7β,17β-triol (20 or 80 mg/kg in 100 μL, p.o.), or dexamethasone (0.25 mg/kg, 100 μL, i.p.) from 15 to 25 weeks of age (i.e., before the first incidence of diabetes; at the University of Catania), from 13 to 19 weeks of age (2 days after the first incidence of diabetes), or from 12 to 26 weeks of age (9 days after the first incidence of diabetes). Blood glucose was monitored using glucometers (ENCORE Glucometer, Bayer Corp., Elkhart, Ind.) at weekly intervals, beginning at 10 weeks of age. Mice with blood glucose levels 200 mg/dL on two consecutive occasions were considered diabetic. The percentage of animals with diabetes over the course of the experiment was monitored.
Histological assessment of insulitis and functional 13-cell content was assessed at the time of disease diagnosis or at the end of the 26-week study (i.e., disease-free mice). Pancreata (after CO2 euthanasia) were immediately isolated and placed in 10% buffered formalin at room temperature overnight, and then embedded in paraffin. After de-paraffinizing, pancreas samples were rehydrated and 5 μm sections were prepared and fixed on glass slides. Some sections were stained with hematoxylin and eosin (H&E) while others were stained with anti-insulin antibody as follows; prepared sections were immersed in Tris-Buffered Saline (TBS: 10 mM Tris buffer, pH 7.4, 0.15 M NaCl) containing 1% of bovine serum albumin (BSA) and 5% normal goat serum for 2 h at room temperature followed by incubation with 2 μg/mL rat anti-insulin IgG2a monoclonal antibody (MAB1417; R&D Systems, Minneapolis, Minn.) in TBS/1% BSA overnight at 4° C. in a humidified chamber. After washing with TBS/0.5 Tween-20, sections were covered with biotinylated anti-rat IgG secondary antibody (BD biosciences, 1:1,000) for 1 h at room temperature, followed by washing with TBS/Tween-20 and incubation with streptavidin-horseradish peroxidase for 30 min. Sections were then incubated with chromogen substrate, DAB (BD Biosciences), for 5 min and counterstained with hematoxylin. The degree of insulitis (leukocyte infiltration per islet; H&E) and functional 13-cell content per islet (insulin production) was scored using a scale of 0 to 3 in which 0=none, 1=few, 2=moderate, 3=high content of inflammatory cells or functional β-cells. Pancreata that were scored were obtained from a randomly-selected portion of mice from each cohort and scores were reported as the mean±SEM for each cohort.

C#C[C@]1(O)CC[C@H]2[C@@H]3[C@@H](O)C=C4C[C@@H](O)CC[C@]4(C)[C@H]3CC[C@@]21C [17α-ethynylandrost-5-ene-3β,7β,17β-triol] was tested, and the minimal effective dose ([1]; 28 days, lower degree of response than higher doses) was 4 mg/day, the “change in M value” ([1]; interim analysis, M<5, two patients treated with 20 mg/day) was “increased” and the “change in M value” ([1]; interim analysis, M<5 patients, 10 mg/day (5 mg twice per day) vs placebo, p=0.0286) was “significantly increased”. For the same molecule, the “change in M value” ([1]; interim analysis, M<5 patients, pooled 10 mg/day or 20 mg/day vs placebo, p=0.0095) was “significantly increased”, the “change in M value” ([1]; interim analysis, M>5 patients, 10 mg/day, 20 mg/day or pooled vs placebo) was “no statistically significant difference” and the “change in M value” ([1]; interim analysis, overall protocol, 20 mg/day group, p=0.0823) was “trends to significance”. For the same molecule, the “change in M value” ([1]; interim analysis, overall protocol, 'mg/day group', p=0.0513) was “trends to significance”, the “change in M value” ([1]; interim analysis, overall protocol, pooled patients, p=0.0278) was “significantly increased” and the “M value (glucose control)” value ([1]; one pre-diabetic hyperglycemic patient, 28 days of dosing 4 mg/day) was “increased”. For the same molecule, the “effectiveness of treatment by M value subgroup” value ([1]; pre-diabetic hyperglycemic patients having M<5) was “most effective”, the “change in M value” ([1]; second interim analysis, M<5, 10 mg/day vs placebo, p=0.002) was “significantly increased” and the “change in M value” ([1]; second interim analysis, M<5, pooled 10 mg/day or 20 mg/day vs placebo, p=0.0007) was “highly significant positive change”. The “change in M value” ([1]; second interim analysis, M>5 patients, 10 mg/day, 20 mg/day or pooled vs placebo) was “no statistically significant difference”, the “change in M value” ([1]; second interim analysis, overall protocol, 10 mg/day group, p=0.04) was “significantly increased” and the “change in M value” ([1]; second interim analysis, overall protocol, 20 mg/day group, p=0.04) was “significantly increased”. The “change in M value” ([1]; second interim analysis, overall protocol, pooled patients, p=0.0109) was “significantly increased”, the “Disease Incidence” value (female NOD mice; 20 mg/kg p.o. once daily) was 0.78 ± 0.15 and the “No. Islets/pancreas (H&E)” value (female NOD mice; 20 mg/kg p.o. once daily) was 2.4 ± 0.9. The “Insulitis Score/Islet (H&E)” value (female NOD mice; 20 mg/kg p.o. once daily) was 2.5 ± 0.3, the “β-Cell Score/Islet (Insulin)” value (female NOD mice; 20 mg/kg p.o. once daily) was 1.5 ± 0.4 and the “effect on disease incidence” value (female NOD mice; 20 mg/kg, differs from 80 mg/kg, p=0.009 Fischer's Exact test) was “ineffective”. The “Disease Incidence” value (female NOD mice; 80 mg/kg p.o. once daily) was 0.17 ± 0.17, the “No. Islets/pancreas (H&E)” value (female NOD mice; 80 mg/kg p.o. once daily) was 8.0 ± 3.1 and the “Insulitis Score/Islet (H&E)” value (female NOD mice; 80 mg/kg p.o. once daily) was 0.8 ± 0.4. The “β-Cell Score/Islet (Insulin)” value (female NOD mice; 80 mg/kg p.o. once daily) was 2.6 ± 0.4, the “progressive increase in disease incidence” value (female NOD mice; 80 mg/kg single daily oral doses started 2 days or 9 days after first incidence of diabetes) was “suppressed” and the “disease incidence relative to vehicle, meta-analysis across all studies” value (female NOD mice; 80 mg/kg, p=0.007 Fischer's Exact test) was “significant decrease”. The “mean±SEM body weights” value (female NOD mice; Week 25, 20 mg/kg) was 24.6 ± 0.8 g, the “mean±SEM body weights” value (female NOD mice; Week 25, 80 mg/kg) was 24.7 ± 0.3 g and the “first incidence of diabetes” value (female NOD mice; week 19, once daily treatment from 15 to 25 weeks of age (vehicle 25%)) was 8%. The “mean±SEM body weights” value (female NOD mice; week 31, end of study) was 24.3 ± 0.6 g and the “maximum disease incidence during treatment” value (female NOD mice; weeks 23 through 25 (vehicle 66%), p<0.05 Chi-Squared test) was 25%.
